According to publication PMC9854410, “Targeted isolation of antitubercular cycloheptapeptides and an unusual pyrroloindoline-containing new analog, asperpyrroindotide A, using LC–MS/MS-based molecular networking” (Marine Life Science & Technology, 2023):
In brackets after ≈: the same amount, converted by molar mass. Marks after values point to notes of the source that are not given here. Starred links: 1 amine or outer side, 2 acyl side, 3 side chain; linkers in the order of their positions; H or OH if unused. Non-standard residues stand in square brackets, D forms with d. Residues, ends and D or L forms follow the SMILES beside them. X1 = O=C([C@H]1C[C@]2(O)c3ccccc3N[C@@H]2N1[*:1])[*:2]

Columns and labels:
[1] = tested on: Mycobacterium marinum; design: method as in Hou et al. [2019b]; details: previous research; positive controls rifampin, streptomycin, isoniazid; ref Hou et al. [2019b]; cited from earlier work
[2] = tested on: Mycobacterium tuberculosis H37Ra (ATCC 25,177); assay: microbe, parasite or virus in culture; type: cell-based; details: microplate Alamar Blue assay; for inhibitory activity against M. tuberculosis H37Ra at a single concentration: at a concentration of 100 μg/mL
Procedure: Anti-mycobacterial activity was determined against Mycobacterium tuberculosis H37Ra (ATCC 25,177) in a microplate Alamar Blue assay system (Collins et al. [1997]). The anti-tubercular drug rifampin was used as a positive control.

[3] = tested on: Mycobacterium tuberculosis H37Ra (ATCC 25,177); details: reported data; ref Hou et al. 2019; cited from earlier work
Source text: Supplement 42995_2022_157_MOESM1_ESM.docx, table 2: Table S2. Antitubercular activity of compounds 1, 8−19 and previously reported 2, 20−23 against Mycobacterium tuberculosis H37Ra | column: MICs (μmol/L)

Row | Compound | minimum inhibitory concentrations (MICs) against Mycobacterium marinum [1] [µM] | MICs (μg/mL) against Mycobacterium tuberculosis H37Ra ([2]; rifampin as positive control) [µg/mL] | other results
1 | NNC(=O)c1ccncc1 [isoniazid, reference compound] | 88.5 (≈ 12.1 µg/mL) |  | 
2 | CO[C@H]1/C=C/O[C@@]2(C)Oc3c(C)c(O)c4c(O)c(c(/C=N/N5CCN(C)CC5)c(O)c4c3C2=O)NC(=O)/C(C)=C\C=C\[C@H](C)[C@H](O)[C@@H](C)[C@@H](O)[C@@H](C)[C@H](OC(C)=O)[C@@H]1C [rifampin, reference compound] | 19.0 (≈ 15.6 µg/mL) |  | MIC ([2]; Mycobacterium tuberculosis, rifampin as positive control, read-out: MICs (μg/mL) against Mycobacterium tuberculosis H37Ra): 0.0156 µg/mL (≈ 0.019 µM)
3 | CC(C)[C@H]1NC(=O)[C@H](Cc2ccccc2)NC(=O)[C@@H](C(C)C)NC(=O)[C@@H](C)NC(=O)[C@H](CO)NC(=O)[C@@H](Cc2c[nH]c3ccccc23)NC(=O)[C@@H](CO)NC1=O [Compound 1, asperversiamide A] (cyclo([dV][dS][dW]S[dA][dV]F)) | 23.4 (≈ 18.2 µg/mL) | > 100 | 
4 | CC(C)[C@H]1NC(=O)[C@H](Cc2ccccc2)NC(=O)[C@@H](C(C)C)NC(=O)[C@@H](C)NC(=O)[C@H](CO)NC(=O)[C@H]2C[C@]3(O)c4ccccc4N[C@@H]3N2C(=O)[C@@H](CO)NC1=O [Compound 8, asperpyrroindotide A] (cyclo([X1]S[dA][dV]F[dV][dS])) |  | > 100 | inhibitory activity against M. tuberculosis H37Ra at a single concentration [2]: None of them showed obvious inhibitory activity
5 | asperversiamide B [Compound 2] | 81.2 |  | MICs (μmol/L) against Mycobacterium tuberculosis H37Ra [3]: 100 ^b μmol/L
6 | CC(C)[C@H]1NC(=O)[C@H](Cc2ccccc2)NC(=O)[C@@H](C(C)C)NC(=O)[C@@H](C)NC(=O)[C@H](C)NC(=O)[C@H]2C[C@]3(O)c4ccccc4N[C@@H]3N2C(=O)[C@@H](CO)NC1=O [Compound 9] (cyclo([X1]A[dA][dV]F[dV][dS])) |  | > 100 | inhibitory activity against M. tuberculosis H37Ra at a single concentration [2]: None of them showed obvious inhibitory activity
7 | [H]/N=C(/N)N[C@H]1[C@H](O)[C@@H](O)[C@H](O[C@@H]2O[C@@H](C)[C@](O)(C=O)[C@H]2O[C@@H]2O[C@@H](CO)[C@H](O)[C@@H](O)[C@@H]2NC)[C@@H](N/C(N)=N\[H])[C@@H]1O [streptomycin, reference compound] | 20.1 (≈ 11.7 µg/mL) |  | 
8 | asperversiamide C [Compound 3] | 87.5 |  | 
